Experimental data from patent publication US7659293B2, “α-Amino-N-hydroxy-acetamide derivatives” (Novartis AG, priority 2001, dated 2010).
Structures can show the parent of a compound that is named as a salt.

Molecular target: T1, MMP1 (collagenase 1) (Homo sapiens, UniProt P03956)
T1 construct: made in house; host or cells: mouse C127 cells, vector pBPV-MMT, secreted into culture medium
T1 sequence (P03956 100-469): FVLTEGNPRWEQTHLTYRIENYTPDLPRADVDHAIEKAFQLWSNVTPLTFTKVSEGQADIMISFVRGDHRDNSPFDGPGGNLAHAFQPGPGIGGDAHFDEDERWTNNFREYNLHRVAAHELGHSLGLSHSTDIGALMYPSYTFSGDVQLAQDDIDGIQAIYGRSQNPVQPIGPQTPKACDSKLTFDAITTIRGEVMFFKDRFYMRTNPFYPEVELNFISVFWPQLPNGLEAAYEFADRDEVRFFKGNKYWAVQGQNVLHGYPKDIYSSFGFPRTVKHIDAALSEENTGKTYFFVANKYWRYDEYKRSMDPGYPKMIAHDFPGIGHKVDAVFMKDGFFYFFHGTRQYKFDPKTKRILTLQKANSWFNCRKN
Assay: MMP1 (collagenase 1) fluorogenic substrate inhibition assay
Format: biochemical
Details: mean ± SEM of three independent experiments
Experimental: The inhibitory activities of compounds of formula I on MT1-MMP, MMP1 (collagenase 1) and MMP2 (gelatinase A) can be determined as follows:
Stock solutions of substrate (MCA-Pro-Leu-Gly-Leu-Dpa-Ala-Arg-NH2 (SEQ ID NO: 1), C. G. Knight, et al, FEBS lett., 296, 263-266, (1992)), are prepared in 100% DMSO at a concentration 1.0 mM.
Stock solutions of inhibitors are prepared in 100% DMSO. The inhibitor is diluted into the assays from a solution in 100% DMSO, and controls substitute an equal volume of DMSO so that the final DMSO concentration from inhibitor and substrate dilutions in all assays is 6.0%. Assays are performed in assay buffer (150 mM NaCl, 10 mM CaCl2, 50 mM Tris-Cl pH7.5, 0.05% Brij-35) containing 6.0% DMSO once the substrate and inhibitor are diluted into it. […] The fluorescence changes are monitored using an excitation wavelength of 320 nm and an emission wavelength of 340 nm. […] The reaction mixture is preincubated with the inhibitor for 30 min, the reaction is started by the addition of MMP enzyme and the fluorescence intensity is measured for 10 min. […]
C127 cells (ATCC-mouse mammary tumor cell line) are grown in Dulbecco's Modified Essential Medium supplemented with 10% heat inactivated fetal bovine serum and 1× antibiotic-antimycotic solution at 37° C. in a humidified CO2 incubator. […] Media from selected clones are analyzed for collagenase expression by an enzymatic assay. […]

IC50: 1.77 ± 0.144 µM
Structure (SMILES): CN(C)c1ccc(CN(CC(=O)NO)S(=O)(=O)c2ccc(OCC3CC3)cc2)cc1 [Example 2, 2-[(4-Cyclopropylmethoxy-benzenesulfonyl)-(4-dimethylamino-benzyl-amino]-N-hydroxy-acetamide HCl salt]
